This is an account of results in the supplement of paper PMC11551840.

Common to all, as to experiment: IC50 (cell viability, 72 h) (ln(µM))
One assay deals with ORL-207. On the procedure: (§1)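 Discovery screen of OSCC cell lines in 1,536-well plates. Cells were treated 24 h after seeding with 7 concentrations spanning a 1,000-fold half-log range for 72 h, and viability was read by CellTiter-Glo 2.0 and normalised to DMSO (1) and medium-only (0) controls. IC50 comes from a two-parameter logistic nonlinear mixed-effects fit and is reported as natural log of IC50 in µM.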

The test system of a further assay is ORL-115. On the procedure: as §1
The next assay concerns SCC-9. On the procedure: as §1
The test system of a further assay is ORL-153. The method, then: as §1
Another assay has as its system BICR10. The method, then:
as §1

In the next assay the test system is HO-1-u-1. On the procedure:
as §1

In another assay the test system is SAS. On the procedure:
as §1

A further assay has as its system HSC-4. On the procedure: as §1
The test system of another assay is ORL-204. On the procedure: as §1
Another assay deals with ORL-156. On the procedure: as §1
The test system of the next assay is ORL-188. On the procedure:
as §1

The subject of a further assay is ORL-195. On the procedure:
as §1

Another assay concerns ORL-166. On the procedure:
as §1

For a further assay, the system named is ORL-48. The method, then: as §1
The next assay has as its system ORL-136. The method, then:
as §1

In the next assay the test system is ORL-214. The method, then:
as §1

For another assay, the system named is HSC-2. The method, then:
as §1

For a further assay, the system named is ORL-150. On the procedure:
as §1

For another assay, the system named is ORL-215. The method, then: as §1
The next assay deals with PE-CA-PJ15. On the procedure: as §1
Another assay deals with ORL-174. On the procedure: as §1

As to `CN[C@@H]1C[C@H]2O[C@@](C)([C@@H]1OC)n1c3ccccc3c3c4c(c5c6ccccc6n2c5c31)C(=O)NC4` [Staurosporine], the “IC50 (ln)” value in the assay on ORL-207 was -4.38; with ORL-115, -2.54; in the assay with SCC-9, -1.81; in the assay on ORL-153, -5.03; in the assay on BICR10, -2.87; in the assay on HO-1-u-1, -3.13. For the same compound, the “IC50 (ln)” value in the assay on SAS was -1.77; with HSC-4 it was -2.01; in the assay with ORL-204 it was -2.94; in the assay with ORL-156 it was -3.75; in the assay with ORL-188, -4.74; with ORL-195, -2.23. Also, the “IC50 (ln)” value with ORL-166 is -4.99; with ORL-48 it was -3.62; in the assay with ORL-136, -1.49; in the assay on ORL-214 it was -4.45; with HSC-2, -3.4; in the assay on ORL-150, -2.55. Further, the “IC50 (ln)” value in the assay on ORL-215 was -2.53; in the assay with PE-CA-PJ15, -1.61; in the assay on ORL-174, -4.98.
Regarding `CN(C)C/C=C/C(=O)Nc1ccc(C(=O)Nc2cccc(Nc3ncc(Cl)c(-c4c[nH]c5ccccc45)n3)c2)cc1` [THZ1], the “IC50 (ln)” value with ORL-207 is -1.93; in the assay with ORL-115, -1.28; in the assay on SCC-9, -0.456; in the assay on ORL-153, -2.01; in the assay with BICR10, -1.1; in the assay on HO-1-u-1, -2.66. For the same compound, the “IC50 (ln)” value in the assay on SAS was -1.01; in the assay with HSC-4, -0.322; in the assay with ORL-204 it was -1.9; in the assay with ORL-156 it was -2.4; in the assay on ORL-188 it was -2.18; with ORL-195, -2.48. Further, the “IC50 (ln)” value with ORL-166 was -2.72; in the assay on ORL-48 it was -2.1; in the assay with ORL-136 it was -0.297; with ORL-214 it was -2.58; in the assay on HSC-2, -2.07; with ORL-150, -1.93. Moreover, the “IC50 (ln)” value is -2.18 with ORL-215, -1.3 in the assay with PE-CA-PJ15 and -2.27 in the assay with ORL-174.
On to `CC[C@@]1(O)C(=O)OCc2c1cc1n(c2=O)Cc2cc3c(CN(C)C)c(O)ccc3nc2-1` [Topotecan], for which the “IC50 (ln)” value was -1.86 with ORL-207; -0.116 with ORL-115; 1.79 in the assay with SCC-9; -1.49 in the assay with ORL-153; -0.563 in the assay with BICR10; -0.253 with HO-1-u-1. For the same compound, the “IC50 (ln)” value is -2.78 in the assay on SAS; -1.66 with HSC-4; -1.8 in the assay with ORL-204; -0.763 in the assay on ORL-156; -2.17 in the assay with ORL-188; -0.561 with ORL-195. The “IC50 (ln)” value in the assay on ORL-166 is -1.82; with ORL-48, -0.589; in the assay on ORL-136 it was 1.32; with ORL-214, -2.24; with HSC-2 it was -2.93; with ORL-150 it was -1.36. Also, the “IC50 (ln)” value in the assay with ORL-215 was -0.991; with PE-CA-PJ15, -0.416; in the assay with ORL-174 it was -1.41.
Regarding `CC[C@]1(O)C[C@@H]2CN(CCc3c([nH]c4ccccc34)[C@@](C(=O)OC)(c3cc4c(cc3OC)N(C)[C@H]3[C@@](O)(C(=O)OC)[C@H](OC(C)=O)[C@]5(CC)C=CCN6CC[C@]43[C@@H]65)C2)C1` [Vinblastine], the “IC50 (ln)” value in the assay on ORL-207 is -6.16; in the assay on ORL-115, -3.39; in the assay with SCC-9 it was -1.75; with ORL-153, -5.08; in the assay with BICR10, -5.52; in the assay on HO-1-u-1 it was 0.0626. In addition, the “IC50 (ln)” value is -2.06 with SAS; 0.489 in the assay on HSC-4; -1.25 in the assay on ORL-204; -5.51 in the assay on ORL-156; -4.52 in the assay on ORL-188; -3.12 in the assay on ORL-195. In addition, the “IC50 (ln)” value was -5.26 in the assay with ORL-166; -4.28 with ORL-48; -0.44 with ORL-136; -5.86 in the assay on ORL-214; -5.8 in the assay with HSC-2; -7.11 in the assay on ORL-150. Besides, the “IC50 (ln)” value in the assay with ORL-215 was -6; in the assay on PE-CA-PJ15, -2.73; with ORL-174 it was -3.94.
On to `CCC1=C[C@@H]2CN(C1)Cc1c([nH]c3ccccc13)[C@@](C(=O)OC)(c1cc3c(cc1OC)N(C)[C@H]1[C@@](O)(C(=O)OC)[C@H](OC(C)=O)[C@]4(CC)C=CCN5CC[C@]31[C@@H]54)C2` [Vinorelbine], for which the “IC50 (ln)” value is -4.86 in the assay on ORL-207; -3.17 in the assay with ORL-115; -2.4 with SCC-9; -4.32 with ORL-153; -3.91 with BICR10; -2.27 in the assay on HO-1-u-1. Moreover, the “IC50 (ln)” value is -1.52 in the assay on SAS; -1.06 in the assay on HSC-4; -2.86 with ORL-204; -4.75 in the assay on ORL-156; -4.3 in the assay on ORL-188; -3.19 in the assay on ORL-195. For the same compound, the “IC50 (ln)” value in the assay on ORL-166 is -3.98; with ORL-48 it was -4.11; in the assay on ORL-136, -0.871; in the assay on ORL-214 it was -3.96; in the assay with HSC-2, -4.57; with ORL-150 it was -4.87. Besides, the “IC50 (ln)” value is -4.43 in the assay with ORL-215, -2.05 in the assay on PE-CA-PJ15 and -4 with ORL-174.
Regarding `CC[C@@H]1C(=O)N(C)c2cnc(Nc3ccc(C(=O)N[C@H]4CC[C@H](N5CCN(CC6CC6)CC5)CC4)cc3OC)nc2N1C(C)C` [Volasertib], the “IC50 (ln)” value with ORL-207 is -2.9; with ORL-115 it was -2.17; in the assay on SCC-9, -0.541; in the assay on ORL-153, -2.22; with BICR10, -2.43; in the assay on HO-1-u-1, -1.37. Besides, the “IC50 (ln)” value in the assay on SAS was -0.561; with HSC-4, -0.173; in the assay on ORL-204 it was -0.0575; in the assay with ORL-156, -2.61; with ORL-188, -2.92; with ORL-195 it was -1.33. The “IC50 (ln)” value with ORL-166 was -2.71; in the assay on ORL-48, -1.36; with ORL-136, 2.12; with ORL-214 it was -1.65; in the assay on HSC-2, -2.15; in the assay with ORL-150, -3.61. Moreover, the “IC50 (ln)” value is -2.84 with ORL-215, 0.264 in the assay with PE-CA-PJ15 and -2.1 in the assay on ORL-174.
